Experimental data taken from patent US3941795A, “α-ARYL-4-SUBSTITUTED PIPERIDINOALKANOL DERIVATIVES” (Richardson-Merrell Inc., priority 1974, dated 1976).

Tested on: wheals induced by intradermal injections on 1γ of histamine
Assay: reduction by 50% of wheals induced by intradermal injections of histamine into guinea pigs (antihistamine)
Format: in vivo
Conditions: Cavia porcellus, po, 1 h, orally administered one hour prior to the histamine injection, 1γ of histamine intradermal, read-out: ED50 (amount required to reduce by 50% wheals induced by intradermal injections of histamine)
Text: To illustrate the utility of the compounds of this invention the following tabulation indicates the amount of certain representative compounds of this invention required to reduce by 50% wheals induced by intradermal injections on 1γ of histamine into guinea pigs. Each compound was orally administered one hour prior to the histamine injection.

Structure (SMILES)	ED50
CC(C)(C)c1ccc(C(O)CCCN2CCC(C(O)(c3ccccc3)C3CCCCC3)CC2)cc1.Cl (stereo not drawn) [4-(α-cyclohexyl-α-hydroxybenzyl)-α-(p-tert-butylphenyl)-1-piperidinebutanol hydrochloride]	12 mg/kg
COc1ccccc1C(=C1CCN(CCCC(O)c2ccc(C(C)(C)C)cc2)CC1)c1ccccc1 (stereo not drawn) [4-[4-[α-(o-Anisyl)benzylidene]-α-(p-tert-butylphenyl)-1-piperidinebutanol]]	4.4 mg/kg
